# Several values for one entry are separate records, joined by “and”; a condition that tells them apart may be missing. Equal values may be shown once. ± gives the expanded uncertainty stated by the source.
# Experiments:
# [1] = xn = mol fraction of the nth substance listed; conditions: 298.15 K, 101 kPa, Liquid, MP522 conductivity instrument
# [2] = 101 kPa, Liquid, MP522 conductivity instrument
smiles,measurement,setting,value
CCCC[n+]1ccccc1.O=S(=O)([N-]S(=O)(=O)C(F)(F)F)C(F)(F)F [1-butylpyridinium bis[(trifluoromethyl)sulfonyl]imide] + CO,electrical conductivity,[1]; x1 = 0.00227,0.302 ± 0.006 S/m
same,electrical conductivity,[1]; x1 = 0.00676,0.679 ± 0.014 S/m
same,electrical conductivity,[1]; x1 = 0.0112,0.961 ± 0.019 S/m
same,electrical conductivity,[1]; x1 = 0.0179,1.29 ± 0.026 S/m
same,electrical conductivity,[1]; x1 = 0.023,1.5 ± 0.03 S/m
same,electrical conductivity,[1]; x1 = 0.0297,1.71 ± 0.034 S/m
same,electrical conductivity,[1]; x1 = 0.0427,1.99 ± 0.04 S/m
same,electrical conductivity,[1]; x1 = 0.0507,2.12 ± 0.042 S/m
same,electrical conductivity,[1]; x1 = 0.0696,2.28 ± 0.046 S/m
same,electrical conductivity,[1]; x1 = 0.092,2.35 ± 0.047 S/m
same,electrical conductivity,[1]; x1 = 0.1676,2.15 ± 0.043 S/m
same,electrical conductivity,[1]; x1 = 0.2137,1.96 ± 0.039 S/m
same,electrical conductivity,[1]; x1 = 0.2653,1.72 ± 0.034 S/m
same,electrical conductivity,[1]; x1 = 0.2984,1.58 ± 0.032 S/m
same,electrical conductivity,[1]; x1 = 0.3655,1.33 ± 0.027 S/m
same,electrical conductivity,[1]; x1 = 0.4009,1.22 ± 0.024 S/m
same,electrical conductivity,[1]; x1 = 0.4397,1.11 ± 0.022 S/m
same,electrical conductivity,[1]; x1 = 0.5194,0.91 ± 0.018 S/m
same,electrical conductivity,[1]; x1 = 0.561,0.825 ± 0.017 S/m
same,electrical conductivity,[1]; x1 = 0.6014,0.749 ± 0.015 S/m
same,electrical conductivity,[1]; x1 = 0.6433,0.681 ± 0.014 S/m
same,electrical conductivity,[1]; x1 = 0.7132,0.581 ± 0.012 S/m
same,electrical conductivity,[1]; x1 = 0.7592,0.523 ± 0.01 S/m
same,electrical conductivity,[1]; x1 = 0.8182,0.456 ± 0.009 S/m
same,electrical conductivity,[1]; x1 = 0.8544,0.421 ± 0.008 S/m
same,electrical conductivity,[1]; x1 = 0.8988,0.381 ± 0.008 S/m
same,electrical conductivity,[1]; x1 = 0.9425,0.346 ± 0.007 S/m
same,electrical conductivity,[1]; x1 = 1,0.308 ± 0.006 S/m
CC[n+]1ccccc1.O=S(=O)([N-]S(=O)(=O)C(F)(F)F)C(F)(F)F [1-ethylpyridinium bis[(trifluoromethyl)sulfonyl]imide],electrical conductivity,[2]; 298.15 K,0.63 S/m and 0.629 S/m
CC[n+]1ccccc1.O=S(=O)([N-]S(=O)(=O)C(F)(F)F)C(F)(F)F [1-ethylpyridinium bis[(trifluoromethyl)sulfonyl]imide] + CCO,electrical conductivity,[1]; x1 = 0.0428,0.803 ± 0.016 S/m
same,electrical conductivity,[1]; x1 = 0.0551,0.956 ± 0.019 S/m
same,electrical conductivity,[1]; x1 = 0.0755,1.16 ± 0.023 S/m
same,electrical conductivity,[1]; x1 = 0.0881,1.26 ± 0.025 S/m
same,electrical conductivity,[1]; x1 = 0.1135,1.43 ± 0.029 S/m
same,electrical conductivity,[1]; x1 = 0.1366,1.54 ± 0.031 S/m
same,electrical conductivity,[1]; x1 = 0.1789,1.67 ± 0.033 S/m
same,electrical conductivity,[1]; x1 = 0.2096,1.71 ± 0.034 S/m
same,electrical conductivity,[1]; x1 = 0.234,1.73 ± 0.035 S/m
same,electrical conductivity,[1]; x1 = 0.2537,1.73 ± 0.035 S/m
same,electrical conductivity,[1]; x1 = 0.2781,1.72 ± 0.034 S/m
same,electrical conductivity,[1]; x1 = 0.3029,1.7 ± 0.034 S/m
same,electrical conductivity,[1]; x1 = 0.3612,1.64 ± 0.033 S/m
same,electrical conductivity,[1]; x1 = 0.4404,1.51 ± 0.03 S/m
same,electrical conductivity,[1]; x1 = 0.4844,1.44 ± 0.029 S/m
same,electrical conductivity,[1]; x1 = 0.5537,1.31 ± 0.03 S/m
same,electrical conductivity,[1]; x1 = 0.5948,1.24 ± 0.025 S/m
same,electrical conductivity,[1]; x1 = 0.6418,1.16 ± 0.023 S/m
same,electrical conductivity,[1]; x1 = 0.7011,1.05 ± 0.021 S/m
same,electrical conductivity,[1]; x1 = 0.76,0.954 ± 0.019 S/m
same,electrical conductivity,[1]; x1 = 0.8228,0.858 ± 0.017 S/m
same,electrical conductivity,[1]; x1 = 0.8845,0.769 ± 0.015 S/m
same,electrical conductivity,[1]; x1 = 1,0.629 ± 0.013 S/m
CC[n+]1ccccc1.O=S(=O)([N-]S(=O)(=O)C(F)(F)F)C(F)(F)F [1-ethylpyridinium bis[(trifluoromethyl)sulfonyl]imide] + CO,electrical conductivity,[1]; x1 = 0.0169,1.42 ± 0.028 S/m
same,electrical conductivity,[1]; x1 = 0.0206,1.61 ± 0.032 S/m
same,electrical conductivity,[1]; x1 = 0.03,2 ± 0.04 S/m
same,electrical conductivity,[1]; x1 = 0.0416,2.42 ± 0.048 S/m
same,electrical conductivity,[1]; x1 = 0.0535,2.7 ± 0.054 S/m
same,electrical conductivity,[1]; x1 = 0.068,2.93 ± 0.059 S/m
same,electrical conductivity,[1]; x1 = 0.089,3.11 ± 0.062 S/m
same,electrical conductivity,[1]; x1 = 0.1049,3.17 ± 0.063 S/m
same,electrical conductivity,[1]; x1 = 0.1209,3.19 ± 0.064 S/m
same,electrical conductivity,[1]; x1 = 0.1541,3.14 ± 0.063 S/m
same,electrical conductivity,[1]; x1 = 0.2007,2.95 ± 0.059 S/m
same,electrical conductivity,[1]; x1 = 0.2781,2.55 ± 0.051 S/m
same,electrical conductivity,[1]; x1 = 0.3667,2.12 ± 0.042 S/m
same,electrical conductivity,[1]; x1 = 0.4224,1.9 ± 0.038 S/m
same,electrical conductivity,[1]; x1 = 0.5562,1.44 ± 0.029 S/m
same,electrical conductivity,[1]; x1 = 0.6863,1.12 ± 0.023 S/m
same,electrical conductivity,[1]; x1 = 0.8307,0.863 ± 0.017 S/m
same,electrical conductivity,[1]; x1 = 1,0.63 ± 0.013 S/m
CCCCCC[n+]1ccccc1.O=S(=O)([N-]S(=O)(=O)C(F)(F)F)C(F)(F)F [1-hexylpyridinium bis(trifluromethylsulfonyl)imide],electrical conductivity,[2]; 283.15 K,0.0737 ± 0.0016 S/m
same,electrical conductivity,[2]; 293.15 K,0.128 S/m and 0.129 S/m
same,electrical conductivity,[2]; 298.15 K,0.163 ± 0.003 S/m
same,electrical conductivity,[2]; 303.15 K,0.205 ± 0.004 S/m
same,electrical conductivity,[2]; 313.15 K,0.306 ± 0.006 S/m
CCCCC[n+]1ccccc1.O=S(=O)([N-]S(=O)(=O)C(F)(F)F)C(F)(F)F [1-pentylpyridinium bis(trifluoromethylsulfonyl)amide],electrical conductivity,[2]; 298.15 K,0.216 ± 0.004 S/m
CCCCC[n+]1ccccc1.O=S(=O)([N-]S(=O)(=O)C(F)(F)F)C(F)(F)F [1-pentylpyridinium bis(trifluoromethylsulfonyl)amide] + CCO,electrical conductivity,[1]; x1 = 0.0223,0.403 ± 0.008 S/m
same,electrical conductivity,[1]; x1 = 0.0292,0.483 ± 0.01 S/m
same,electrical conductivity,[1]; x1 = 0.0374,0.574 ± 0.011 S/m
same,electrical conductivity,[1]; x1 = 0.0477,0.669 ± 0.013 S/m
same,electrical conductivity,[1]; x1 = 0.0603,0.761 ± 0.015 S/m
same,electrical conductivity,[1]; x1 = 0.0725,0.831 ± 0.017 S/m
same,electrical conductivity,[1]; x1 = 0.092,0.912 ± 0.018 S/m
same,electrical conductivity,[1]; x1 = 0.1279,0.991 ± 0.02 S/m
same,electrical conductivity,[1]; x1 = 0.1529,1.01 ± 0.02 S/m
same,electrical conductivity,[1]; x1 = 0.1636,1.01 ± 0.02 S/m
same,electrical conductivity,[1]; x1 = 0.175,1.01 ± 0.02 S/m
same,electrical conductivity,[1]; x1 = 0.2038,0.998 ± 0.02 S/m
same,electrical conductivity,[1]; x1 = 0.2608,0.941 ± 0.019 S/m
same,electrical conductivity,[1]; x1 = 0.3058,0.882 ± 0.018 S/m
same,electrical conductivity,[1]; x1 = 0.3508,0.82 ± 0.016 S/m
same,electrical conductivity,[1]; x1 = 0.4166,0.731 ± 0.015 S/m
same,electrical conductivity,[1]; x1 = 0.4692,0.662 ± 0.013 S/m
same,electrical conductivity,[1]; x1 = 0.5309,0.587 ± 0.012 S/m
same,electrical conductivity,[1]; x1 = 0.6063,0.503 ± 0.01 S/m
same,electrical conductivity,[1]; x1 = 0.6746,0.437 ± 0.009 S/m
same,electrical conductivity,[1]; x1 = 0.7613,0.363 ± 0.007 S/m
same,electrical conductivity,[1]; x1 = 0.8138,0.325 ± 0.007 S/m
same,electrical conductivity,[1]; x1 = 0.8772,0.283 ± 0.006 S/m
same,electrical conductivity,[1]; x1 = 0.9319,0.251 ± 0.005 S/m
same,electrical conductivity,[1]; x1 = 1,0.216 ± 0.004 S/m
CCCCC[n+]1ccccc1.O=S(=O)([N-]S(=O)(=O)C(F)(F)F)C(F)(F)F [1-pentylpyridinium bis(trifluoromethylsulfonyl)amide] + CO,electrical conductivity,[1]; x1 = 0.00257,0.323 ± 0.006 S/m
same,electrical conductivity,[1]; x1 = 0.00682,0.658 ± 0.013 S/m
same,electrical conductivity,[1]; x1 = 0.012,0.966 ± 0.019 S/m
same,electrical conductivity,[1]; x1 = 0.0185,1.26 ± 0.025 S/m
same,electrical conductivity,[1]; x1 = 0.0256,1.5 ± 0.03 S/m
same,electrical conductivity,[1]; x1 = 0.0325,1.67 ± 0.033 S/m
same,electrical conductivity,[1]; x1 = 0.0398,1.82 ± 0.036 S/m
same,electrical conductivity,[1]; x1 = 0.0546,1.97 ± 0.039 S/m
same,electrical conductivity,[1]; x1 = 0.0734,2.1 ± 0.042 S/m
same,electrical conductivity,[1]; x1 = 0.0854,2.11 ± 0.042 S/m
same,electrical conductivity,[1]; x1 = 0.1093,2.05 ± 0.041 S/m
same,electrical conductivity,[1]; x1 = 0.1709,1.82 ± 0.036 S/m
same,electrical conductivity,[1]; x1 = 0.2113,1.61 ± 0.032 S/m
same,electrical conductivity,[1]; x1 = 0.3105,1.22 ± 0.024 S/m
same,electrical conductivity,[1]; x1 = 0.3653,1.03 ± 0.021 S/m
same,electrical conductivity,[1]; x1 = 0.4197,0.886 ± 0.018 S/m
same,electrical conductivity,[1]; x1 = 0.4604,0.788 ± 0.016 S/m
same,electrical conductivity,[1]; x1 = 0.5266,0.652 ± 0.013 S/m
same,electrical conductivity,[1]; x1 = 0.5689,0.585 ± 0.012 S/m
same,electrical conductivity,[1]; x1 = 0.6107,0.522 ± 0.01 S/m
same,electrical conductivity,[1]; x1 = 0.6447,0.479 ± 0.01 S/m
same,electrical conductivity,[1]; x1 = 0.7183,0.401 ± 0.008 S/m
same,electrical conductivity,[1]; x1 = 0.7639,0.361 ± 0.007 S/m
same,electrical conductivity,[1]; x1 = 0.8278,0.313 ± 0.006 S/m
same,electrical conductivity,[1]; x1 = 0.8938,0.27 ± 0.005 S/m
same,electrical conductivity,[1]; x1 = 0.9397,0.246 ± 0.005 S/m
same,electrical conductivity,[1]; x1 = 1,0.216 ± 0.004 S/m

# — the NIST ThermoML archive (doi:10.1021/je200616t)
